In ChEMBL document CHEMBL1128948, “Novel thrombin inhibitors that are based on a macrocyclic tripeptide motif” (Bioorg Med Chem Lett, 1996):

Each compound was assayed against T1, Prothrombin (Homo sapiens, UniProt P00734) (assay: Compound was evaluated for inhibition of human thrombin at a concentration of 50 uM; Not active).

SMILES | Ki
N=C(N)NCCC[C@H]1NC(=O)[C@H]2CCCN2C(=O)[C@H](CCc2ccccc2)NC(=O)CCCCCCCNC(=O)C1O (stereo not given in full) | Not Active

These compounds were tested against T1, Prothrombin (assay: Inhibition of human thrombin).

SMILES | Ki
COC1C[C@@H]2C(=O)N[C@H](CCCN=C(N)N)C(=O)C(=O)NCCCCCCCC(=O)N[C@@H](Cc3ccccc3)C(=O)N2C1 (stereo not given in full) | 159 nM
N=C(N)NCCC[C@H]1NC(=O)[C@H]2CCCN2C(=O)[C@H](Cc2ccccc2)NC(=O)CCCCCNC(=O)[C@H](CC(c2ccccc2)c2ccccc2)NC(=O)C1=O (single isomer, unassigned) | 5.3 nM
N=C(N)NCCC[C@H]1NC(=O)[C@H]2CCCN2C(=O)[C@H](Cc2ccccc2)NC(=O)CCCCCNC(=O)C1=O (single isomer, unassigned) | 473 nM
N=C(N)NCCC[C@H]1NC(=O)[C@H]2CCCN2C(=O)[C@H](c2ccccc2)NC(=O)CCCCCCCNC(=O)C1=O (single isomer, unassigned) | 163 nM
N=C(N)NCCC[C@H]1NC(=O)[C@H]2CCCN2C(=O)[C@H](Cc2ccccc2)NC(=O)CCCCCCNC(=O)C1=O (single isomer, unassigned) | 1800 nM
N=C(N)NCCC[C@H]1NC(=O)[C@H]2CCCCN2C(=O)[C@H](Cc2ccccc2)NC(=O)CCCCCCCNC(=O)C1=O (single isomer, unassigned) | 86 nM
N=C(N)NCCC[C@H]1NC(=O)[C@H]2CCCN2C(=O)[C@H](Cc2ccccc2)NC(=O)CCCCCNC(=O)[C@H](CCc2ccccc2)NC(=O)C1=O (single isomer, unassigned) | 3.1 nM
N=C(N)NCCC[C@H]1NC(=O)[C@H]2CCCN2C(=O)[C@H](CCc2ccccc2)NC(=O)CCCCCCCNC(=O)C1=O (single isomer, unassigned) | 20 nM
N=C(N)NCCC[C@H]1NC(=O)[C@H]2CCCN2C(=O)[C@H](Cc2ccccc2)NC(=O)CCCCCCCNC(=O)C1=O (single isomer, unassigned) | 24 nM
N=C(N)NCCC[C@H]1NC(=O)[C@H]2CCCN2C(=O)[C@H](Cc2ccccc2)NC(=O)CCCCCCCCCCNC(=O)C1=O (single isomer, unassigned) | 15 nM
N=C(N)NCCC[C@H]1NC(=O)[C@H]2CCCN2C(=O)[C@H](NC=O)CNC(=O)/C=C\[C@@H](Cc2ccc(O)cc2)NC(=O)[C@H](Cc2ccccc2)NC(=O)C1=O [MACROCYCLIC TRIPEPTIDE MOTIF] | 4.1 nM
N=C(N)NCCC[C@H]1NC(=O)[C@H]2CCCN2C(=O)[C@H](Cc2ccccc2)NC(=O)CCCCCCCCCNC(=O)C1=O (single isomer, unassigned) | 9.9 nM

These compounds were tested against T2, Serine protease 1 (Bos taurus, UniProt P00760) (assay: Inhibition of bovine trypsin).
T2 sequence (P00760 whole entry): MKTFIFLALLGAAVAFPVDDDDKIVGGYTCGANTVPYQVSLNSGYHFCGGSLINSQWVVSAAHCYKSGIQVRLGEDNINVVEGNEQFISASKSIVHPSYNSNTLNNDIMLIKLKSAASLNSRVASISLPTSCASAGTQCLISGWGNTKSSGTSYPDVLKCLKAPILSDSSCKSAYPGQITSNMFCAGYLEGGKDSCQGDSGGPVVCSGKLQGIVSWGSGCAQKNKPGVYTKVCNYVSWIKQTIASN

SMILES | Ki
N=C(N)NCCC[C@@H]1NC(=O)[C@@H]2CCCN2C(=O)[C@@H](Cc2ccccc2)NC(=O)CCCCCNC(=O)C1=O (single isomer, unassigned) | 710 nM
COC1C[C@@H]2C(=O)N[C@H](CCCN=C(N)N)C(=O)C(=O)NCCCCCCCC(=O)N[C@@H](Cc3ccccc3)C(=O)N2C1 (stereo not given in full) | 13 nM
N=C(N)NCCC[C@@H]1NC(=O)[C@@H]2CCCN2C(=O)[C@@H](Cc2ccccc2)NC(=O)CCCCCCNC(=O)C1=O (single isomer, unassigned) | 280 nM
N=C(N)NCCC[C@@H]1NC(=O)[C@@H]2CCCN2C(=O)[C@@H](Cc2ccccc2)NC(=O)CCCCCNC(=O)[C@@H](CCc2ccccc2)NC(=O)C1=O (single isomer, unassigned) | 5.2 nM
N=C(N)NCCC[C@@H]1NC(=O)[C@@H]2CCCN2C(=O)[C@@H](Cc2ccccc2)NC(=O)CCCCCCCCCNC(=O)C1=O (single isomer, unassigned) | 2.1 nM
N=C(N)NCCC[C@@H]1NC(=O)[C@@H]2CCCN2C(=O)[C@@H](Cc2ccccc2)NC(=O)CCCCCNC(=O)[C@@H](CC(c2ccccc2)c2ccccc2)NC(=O)C1=O (single isomer, unassigned) | 2.5 nM
N=C(N)NCCC[C@@H]1NC(=O)[C@@H]2CCCN2C(=O)[C@@H](Cc2ccccc2)NC(=O)CCCCCCCCCCNC(=O)C1=O (single isomer, unassigned) | 25 nM
N=C(N)NCCC[C@@H]1NC(=O)[C@@H]2CCCN2C(=O)[C@@H](c2ccccc2)NC(=O)CCCCCCCNC(=O)C1=O (single isomer, unassigned) | 11 nM
N=C(N)NCCC[C@@H]1NC(=O)[C@@H]2CCCN2C(=O)[C@@H](NC=O)CNC(=O)/C=C\[C@@H](Cc2ccc(O)cc2)NC(=O)[C@@H](Cc2ccccc2)NC(=O)C1=O [MACROCYCLIC TRIPEPTIDE MOTIF] | 1 nM
N=C(N)NCCC[C@@H]1NC(=O)[C@@H]2CCCN2C(=O)[C@@H](Cc2ccccc2)NC(=O)CCCCCCCNC(=O)C1=O (single isomer, unassigned) | 10 nM
N=C(N)NCCC[C@@H]1NC(=O)[C@@H]2CCCN2C(=O)[C@@H](CCc2ccccc2)NC(=O)CCCCCCCNC(=O)C1=O (single isomer, unassigned) | 14 nM
N=C(N)NCCC[C@@H]1NC(=O)[C@@H]2CCCCN2C(=O)[C@@H](Cc2ccccc2)NC(=O)CCCCCCCNC(=O)C1=O (single isomer, unassigned) | 66 nM
